Laboratory results from US20090239834A1, “MCC-257 MODULATION OF NEUROGENESIS” (BrainCells, Inc., priority 2008, published 2009).
“Also recorded” adds a separate entry of the source.

Tests used:
male F344 rats [1] = experiment: Novelty-suppressed feeding test (NSF), chronic dosing; assay type: in vivo, rat; settings: vs vehicle, p<0.05 one-tailed Student's t-test, FIG. 2
Protocol: The white bar represents the vehicle control (DI water; n=10), the black bar represents fluoxetine dosed at 12.5 mg/kg (n=11) and the grey bar represents MCC-257 dosed at 0.3 mg/kg (n=11). Vehicle and compounds were administered orally once daily (q.d.) for 20 days prior to behavioral testing. Behavioral testing was carried out as described in Example 2. […] Values are the mean±SEM.
The NSF is a conflict test in which food-deprived animals are presented with a food pellet placed in the center of a brightly-lit open field. This paradigm elicits competing motivations: the drive to eat the food pellet, and the fear of venturing into the center of the arena. The dependent variable in this test is the amount of time it takes for an animal to begin eating the pellet, and this latency has been used as an index of anxiety-like behavior and antidepressant activity because it is decreased by classical anxiolytic drugs such as benzodiazepines (Bodnoff et al. “The effects of chronic antidepressant treatment in an animal model of anxiety.” 1988 Psychopharmacology (Berl) 95(3):298-302; Bodnoff et al. “A comparison of the effects of diazepam versus several typical and atypical anti-depressant drugs in an animal model of anxiety.” 1989 Psychopharmacology (Berl) 97(2):277-9; Shephard and Broadhurst, “Hyponeophagia and arousal in rats: effects of diazepam, 5-methoxy-N,N-dimethyltryptamine, d-amphetamine and food deprivation.” 1982 Psychopharmacology (Berl) 78(4):[…]) as well as antidepressants.
NSF is performed as described previously by Santarelli, et al. (2003) with some modifications. Briefly, male F344 rats were dosed orally once daily (q.d.) for 20-days with vehicle (DI water; n=10), 12.5 mg/kg fluoxetine (n=11) or 0.3 mg/kg MCC-257 (n=11). Animals were food deprived for 24 hours prior to testing. On day 22, 60 minutes after drug administration, NSF was performed in an open field chamber. A single pellet of rodent chow was placed in the center of the open field. […] Saved videos were subsequently scored by blinded observers and the latency to eat the pellet was recorded.

[2] = tested on: human neural stem cells (hNSCs); experiment: Neuronal differentiation of human neural stem cells (TUJ-1 staining); assay type: cell-based
Excerpt: FIG. 1 is a dose-response curve showing the effect of MCC-257 on neuronal differentiation of human neural stem cells. Data is presented as the percentage of the neuronal positive control, with basal media values subtracted.
Human neural stem cells (hNSCs) were isolated and grown in monolayer culture, plated, treated with varying concentrations of MCC-257, and stained with TUJ-1 antibody for the detection of neuronal differentiation as described in U.S. Patent Publication 2007/0015138 (incorporated by reference). Mitogen-free test media with a positive control for neuronal differentiation was used along with basal media without growth factors as a negative control.
The data is presented as a percent of neuronal positive control.

male F344 rats [3] = experiment: Novel Object Recognition (NOR) cognition assay; assay type: in vivo, rat; settings: 48-hour delay; increasing oral doses q.d., chronic; vs vehicle; FIG. 4
Protocol: Behavioral testing was carried out as described in Example 2. Data is presented as the mean percentage of visits to a novel object. The white bar represents vehicle (DI water: n=11) and grey bars represent increasing doses of MCC-257 (0.1 mg/kg, n=10; 0.3 mg/kg, n=10; 3.0 mg/kg, n=10). All animals were dosed orally once daily (q.d.) for 29 days prior to testing. […] Values are the mean±SEM.
NOR was performed as described previously by Broadbent et al., (“Spatial memory, recognition memory, and the hippocampus.” 2004 PNAS 101(40):14511-14520) with some modifications. The apparatus consisted of an open field (45×45×50 cm high) made of polycarbonate. Triplicate copies were used of the objects to be discriminated. Care was taken to ensure that the pair of objects tested were made from the same material so that they could not be distinguished readily by olfactory cues although they had very different appearances. Each test session consisted of two phases. In the initial familiarization phase, two identical objects (A1 and A2) were placed in the far corners of the box arena. A rat was then placed in the middle of the arena and allowed 15 minutes to explore both objects. Exploration of an object was defined as directing the nose to the object at a distance of less than 2 cm and/or touching it with the nose. After a delay of 48-hours the rat was re-introduced to the arena (“test phase”). […]

[4] = tested on: neural progenitor cells within the dentate gyrus of the hippocampus; experiment: In vivo neurogenesis, BrdU positive cell counts in the dentate gyrus; parameters: species or system rat; settings: 0.3 mg/kg orally q.d., chronic (26 or 28 days as printed); vs vehicle; FIG. 3
Protocol: The white bar represents vehicle (DI water, n=11) and the grey bar represents MCC-257 dosed at 0.3 mg/kg (n=10). Both vehicle and MCC-257 were dosed orally once daily (q.d.) for 26 days prior to analysis. […] Data are presented as the number of BrdU cells per cubic mm of dentate gyrus. […] Values are the mean±SEM.
For the in vivo neurogenesis assays, male F344 rats were dosed orally once daily (q.d.) for 28-days with vehicle (DI water; n=11) or 0.3 mg/kg MCC-257 ([…]). BrdU was administered once daily between days 9 and 14 (100 mg/kg/day, i.p.).

| Structure (SMILES) | latency to eat a food pellet in a novel environment (male F344 rats [1]; 12.5 mg/kg orally q.d. for 20 days) | latency to eat a food pellet in a novel environment (male F344 rats [1]; 12.5 mg/kg orally q.d. for 20 days, listed as Fluoxetine) | EC50 ([2]; Homo sapiens, Neural stem cell, read-out: EC50 of neuronal differentiation) | effect on neuronal differentiation ([2]; concentration response curve, percent of neuronal positive control, FIG. 1) | latency to eat a food pellet in a novel environment (male F344 rats [1]; 0.3 mg/kg orally q.d. for 20 days) | preference for the novel object (percent visits) (male F344 rats [3]) | BrdU positive cells per cubic mm in granule cell layer of dentate gyrus (neurogenesis) [4] |
| --- | --- | --- | --- | --- | --- | --- | --- |
| CNCCC(Oc1ccc(C(F)(F)F)cc1)c1ccccc1 (stereo not shown) [fluoxetine, reference compound] | significantly reduced | significantly reduced latency to eat | – | – | – | – | – |
| CO[C@]1(C(=O)N[C@@H]2CC[C@@]3(C)[C@@H](CC[C@@H]4[C@@H]3CC[C@]3(C)[C@@H]([C@H](C)CCCC(C)C)CC[C@@H]43)C2)C[C@H](O)[C@@H](NC(C)=O)[C@H]([C@H](O)[C@H](O)CO)O1 [MCC-257, 5-acetamido-N-(5alpha-cholestan-3alpha-yl)-3,5-dideoxy-2-O-methyl-D-glycero-alpha-D-galacto-non-2-ulopyranosonamide] | – | – | 90 nM | promoted neuronal differentiation in a concentration dependent manner | significantly reduced latency to eat | dose dependent increase in preference for the novel object; also recorded: dose-related increase in preference for the novel object | significant increase; also recorded: significantly increased neurogenesis |
